Experiments:
Magnaporthe grisea = experiment: whole plant or invertebrate; format: in vivo; conditions: 250 ppm drug solution sprayed on test plant
Alternaia brassicicola = experiment: Test Example C: Alternaria sooty spot on cabbage; format: in vivo; conditions: 250 ppm drug solution sprayed on test plant
Source text: Seeds of a test plant (cabbage variety: Shikidori) were planted and cultivated until the cotyledons extended.
<Control Value> Control value=100{1−(n/3)}

Puccinia recondita = experiment: Test Example E: Brown rust on wheat; format: in vivo; conditions: 250 ppm drug solution sprayed on test plant
Phytophthora infestans = experiment: whole plant or invertebrate; format: in vivo; conditions: 250 ppm drug solution sprayed on test plant
Botrytis cinerea = experiment: Test Example B: Gray mold on tomato; conditions: 250 ppm drug solution sprayed on test plant
Plasmopara viticola = experiment: Test Example G: Downy mildew on vine; conditions: 250 ppm drug solution sprayed (2.5 ml/pot), grape Neomuscat, 7 to 10 days after inoculation
[1] = tested on: Colletotrichum orbiculare; experiment: Test Example H: Anthracnose on cucumber; conditions: 250 ppm drug solution sprayed (2.5 ml/pot), cucumber Sagami Hanjiro, 6 to 10 days after inoculation
[2] = tested on: Blumeria graminis f. sp. hordei; experiment: Test Example D: Powdery mildew on barley; conditions: 250 ppm drug solution sprayed on test plant

Compound	Test A control value (Magnaporthe grisea)	Test C control value (Alternaia brassicicola)	Test E control value (Puccinia recondita)	Test F control value (Phytophthora infestans)	Test B control value (Botrytis cinerea)	Test G control value (Plasmopara viticola)	Test H control value [1]	Test D control value [2]
CCCc1cc(Cl)c(=O)n(CC)c1-c1ccc(OC)cc1C [compound 412]	H (more than 50% control value)	H (more than 50% control value)	H (more than 50% control value)	H (more than 50% control value)	H (more than 50% control value)	L (50% or less control value)	H (more than 50% control value)	H (more than 50% control value)
CCCc1cc(Br)c(=O)n(CC)c1-c1ccc(OC)cc1C [compound 413]	H (more than 50% control value)	H (more than 50% control value)	H (more than 50% control value)	L (50% or less control value)	H (more than 50% control value)	L (50% or less control value)	H (more than 50% control value)	L (50% or less control value)
CCCc1cc(Cl)c(=O)n(C)c1-c1ccc(F)cc1Br [compound 414]	H (more than 50% control value)	H (more than 50% control value)	H (more than 50% control value)	L (50% or less control value)	H (more than 50% control value)	L (50% or less control value)	H (more than 50% control value)	H (more than 50% control value)
CCCc1cc(Br)c(=O)n(C)c1-c1ccc(F)cc1Br [compound 415]	H (more than 50% control value)	H (more than 50% control value)	H (more than 50% control value)	L (50% or less control value)	H (more than 50% control value)	L (50% or less control value)	L (50% or less control value)	L (50% or less control value)
CCCc1ccc(=O)n(C)c1-c1ccc(OC)cc1Br [compound 416]	L (50% or less control value)	L (50% or less control value)	H (more than 50% control value)	L (50% or less control value)	L (50% or less control value)	L (50% or less control value)	L (50% or less control value)	L (50% or less control value)
CCCc1cc(Cl)c(=O)n(C)c1-c1ccc(OC)cc1Br [compound 417]	L (50% or less control value)	H (more than 50% control value)	H (more than 50% control value)	L (50% or less control value)	H (more than 50% control value)	L (50% or less control value)	H (more than 50% control value)	L (50% or less control value)
CCCc1cc(Br)c(=O)n(C)c1-c1ccc(OC)cc1Br [compound 418]	L (50% or less control value)	H (more than 50% control value)	H (more than 50% control value)	H (more than 50% control value)	H (more than 50% control value)	L (50% or less control value)	H (more than 50% control value)	L (50% or less control value)
CCCc1ccc(=O)n(C)c1-c1ccc(F)cc1C [compound 419]	L (50% or less control value)	H (more than 50% control value)	L (50% or less control value)	L (50% or less control value)	L (50% or less control value)	L (50% or less control value)	H (more than 50% control value)	L (50% or less control value)
CCCc1cc(Cl)c(=O)n(C)c1-c1ccc(F)cc1C [compound 420]	L (50% or less control value)	L (50% or less control value)	H (more than 50% control value)	L (50% or less control value)	H (more than 50% control value)	L (50% or less control value)	L (50% or less control value)	H (more than 50% control value)
CCCc1cc(Br)c(=O)n(C)c1-c1ccc(F)cc1C [compound 421]	L (50% or less control value)	H (more than 50% control value)	H (more than 50% control value)	L (50% or less control value)	H (more than 50% control value)	L (50% or less control value)	H (more than 50% control value)	H (more than 50% control value)
CCCC1=C(c2c(F)cccc2F)N(CC)C(=O)CC1 [compound 422]	L (50% or less control value)	H (more than 50% control value)	L (50% or less control value)	L (50% or less control value)	L (50% or less control value)	L (50% or less control value)	L (50% or less control value)	H (more than 50% control value)
CC(C)C(C)(O)c1cc(Br)c(=O)n(C)c1-c1c(F)cc(F)cc1F (stereo not drawn) [compound 423]	H (more than 50% control value)	H (more than 50% control value)	H (more than 50% control value)	H (more than 50% control value)	H (more than 50% control value)	H (more than 50% control value)	H (more than 50% control value)	H (more than 50% control value)
CCCC1=C(c2c(F)cc(F)cc2F)N(CC)C(=S)CC1 [compound 424]	L (50% or less control value)	L (50% or less control value)	L (50% or less control value)	L (50% or less control value)	H (more than 50% control value)	L (50% or less control value)	L (50% or less control value)	L (50% or less control value)
CCCc1ccc(=O)n(CC)c1-c1c(F)cccc1F [compound 426]	H (more than 50% control value)	H (more than 50% control value)	L (50% or less control value)	L (50% or less control value)	H (more than 50% control value)	L (50% or less control value)	H (more than 50% control value)	L (50% or less control value)
CCCc1ccc(=S)n(CC)c1-c1c(F)cc(F)cc1F [compound 427]	L (50% or less control value)	H (more than 50% control value)	L (50% or less control value)	L (50% or less control value)	H (more than 50% control value)	L (50% or less control value)	H (more than 50% control value)	L (50% or less control value)
CCCc1cc(Cl)c(=O)n(CC)c1-c1c(F)cccc1F [compound 428]	H (more than 50% control value)	H (more than 50% control value)	H (more than 50% control value)	L (50% or less control value)	H (more than 50% control value)	H (more than 50% control value)	H (more than 50% control value)	H (more than 50% control value)
CCCc1cc(Br)c(=O)n(CC)c1-c1c(F)cccc1F [compound 429]	H (more than 50% control value)	H (more than 50% control value)	H (more than 50% control value)	L (50% or less control value)	H (more than 50% control value)	H (more than 50% control value)	H (more than 50% control value)	H (more than 50% control value)
CCCc1cc(Cl)c(=S)n(CC)c1-c1c(F)cc(F)cc1F [compound 430]	H (more than 50% control value)	H (more than 50% control value)	H (more than 50% control value)	L (50% or less control value)	H (more than 50% control value)	L (50% or less control value)	H (more than 50% control value)	H (more than 50% control value)
